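Grown in 96-well plates, cells were treated for 48 hours with each compound at five concentrations. Insufficient inhibition: endpoint recorded as highest concentration tested. Here, GI50 denotes the concentration required for 50% inhibition of growth.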 Active and inactive are the calls of the source. Cut-off read from the data, not from the text of the source: active = GI50 up to about 1.1 µM and inactive = higher.
Experiments:
Assay in all cases: NCI anticancer screen, dose series, 48 h
SK-MEL-28 = system: SK-MEL-28
UACC-62 = system: UACC-62
LOX IMVI = system: LOX IMVI
M14 = system: M14
SNB-19 = system: SNB-19
TK-10 = system: TK-10
SF-268 = system: SF-268
SNB-75 = system: SNB-75
NCI-H460 = system: NCI-H460
A498 = system: A498
OVCAR-3 = system: OVCAR-3
ACHN = system: ACHN
DU-145 = system: DU-145
U-251 = system: U-251
HCT-15 = system: HCT-15
MCF7 = system: MCF7
K562 = system: K562
CAKI-1 = system: CAKI-1
UACC-257 = system: UACC-257
RPMI-8226 = system: RPMI-8226
COLO 205 = system: COLO 205
HCT-116 = system: HCT-116
NCI/ADR-RES = system: NCI/ADR-RES
RXF 393 = system: RXF 393
OVCAR-5 = system: OVCAR-5
MOLT-4 = system: MOLT-4
NCI-H23 = system: NCI-H23
SW-620 = system: SW-620
KM12 = system: KM12
SF-295 = system: SF-295
BT-549 = system: BT-549
NCI-H226 = system: NCI-H226
PC-3 = system: PC-3
T47D = system: T47D
OVCAR-4 = system: OVCAR-4
MDA-MB-435 = system: MDA-MB-435
786-0 = system: 786-0
A549 = system: A549
HOP-92 = system: HOP-92
UO-31 = system: UO-31
SK-MEL-2 = system: SK-MEL-2
CCRF-CEM = system: CCRF-CEM
SK-MEL-5 = system: SK-MEL-5
MDA-MB-231 = system: MDA-MB-231
EKVX = system: EKVX
HOP-62 = system: HOP-62
SK-OV-3 = system: SK-OV-3
HCC 2998 = system: HCC 2998

## CN1C(=O)C(=Cc2ccc(Br)cc2)C(=O)N(C)C1=O
SK-MEL-28
  GI50: > 100 µM (inactive)
UACC-62
  GI50: > 100 µM (inactive)
LOX IMVI
  GI50: > 100 µM (inactive)
M14
  GI50: > 100 µM (inactive)
SNB-19
  GI50: > 100 µM (inactive)
TK-10
  GI50: > 100 µM (inactive)
SF-268
  GI50: > 100 µM (inactive)
SNB-75
  GI50: > 100 µM (inactive)
NCI-H460
  GI50: > 100 µM (inactive)
A498
  GI50: > 100 µM (inactive)
OVCAR-3
  GI50: > 100 µM (inactive)
ACHN
  GI50: > 100 µM (inactive)
DU-145
  GI50: > 100 µM (inactive)
U-251
  GI50: > 100 µM (inactive)
HCT-15
  GI50: > 100 µM
MCF7
  GI50: > 100 µM (inactive)
K562
  GI50: 5.45 µM (inactive)
CAKI-1
  GI50: > 100 µM (inactive)
UACC-257
  GI50: > 100 µM (inactive)
RPMI-8226
  GI50: > 100 µM (inactive)
COLO 205
  GI50: > 100 µM (inactive)
HCT-116
  GI50: > 100 µM (inactive)
NCI/ADR-RES
  GI50: > 100 µM (inactive)
RXF 393
  GI50: 40.8 µM (inactive)
OVCAR-5
  GI50: > 100 µM (inactive)
MOLT-4
  GI50: 14.1 µM (inactive)
NCI-H23
  GI50: > 100 µM (inactive)
SW-620
  GI50: > 100 µM (inactive)
KM12
  GI50: > 100 µM (inactive)
SF-295
  GI50: > 100 µM (inactive)
BT-549
  GI50: > 100 µM (inactive)
NCI-H226
  GI50: > 100 µM (inactive)
PC-3
  GI50: > 100 µM (inactive)
T47D
  GI50: > 100 µM (inactive)
OVCAR-4
  GI50: > 100 µM (inactive)
MDA-MB-435
  GI50: > 100 µM (inactive)
786-0
  GI50: > 100 µM (inactive)
A549
  GI50: > 100 µM (inactive)
HOP-92
  GI50: > 100 µM (inactive)
UO-31
  GI50: > 100 µM (inactive)
SK-MEL-2
  GI50: > 100 µM (inactive)
CCRF-CEM
  GI50: > 100 µM (inactive)
SK-MEL-5
  GI50: > 100 µM (inactive)
MDA-MB-231
  GI50: > 100 µM (inactive)
EKVX
  GI50: > 100 µM (inactive)
HOP-62
  GI50: > 100 µM (inactive)
SK-OV-3
  GI50: > 100 µM (inactive)
HCC 2998
  GI50: > 100 µM (inactive)

Reference: ChEMBL document CHEMBL1201862, “PubChem BioAssay data set” (2004)
